Assay results reported in paper PMC10723784, “Investigation of the cytotoxicity induced by cannabinoids on human ovarian carcinoma cells” (Pharmacology Research & Perspectives, 2023).
Read-outs that look alike come from different tables or passages of the source.

What was measured:
[1] = MTT cytotoxicity assay, non-cancer PNT2 cells; conditions: human, PNT2 normal prostate epithelial cells
Protocol: Human ovarian carcinoma cells, A2780 (sensitive to chemotherapeutics), A2780/CP70 (resistant to chemotherapeutics), and non‐cancerous cells including PNT2 (normal prostate epithelial cell line), and/or ARPE19 (human retinal pigment cell line) were maintained according to the ATCC and ECACC guidelines.
In vitro chemosensitivity assays were performed using the MTT assay as previously described.[32], [33] Briefly, at 70% confluency, cells were seeded in 96‐well plates at a density of 2000 cells/well. […] After the allocated contact time had elapsed, the media was removed and 0.5% (w/v) MTT solution diluted in complete media (200 μL) was added to each well. Following a 4 h incubation, the supernatants were removed, and the formazan crystals were dissolved in dimethylsulfoxide (150 μL). The absorbance was read at 540 nm on a Tecan Infinite 50 plate UV reader.

A2780/CP70 cells [2] = experiment: Annexin V assay, A2780/CP70 cells; type: cell-based, human; conditions: A2780/CP70, 50 μM, 24 h
Protocol: (§1) The Annexin V assay was performed to differentiate healthy cells from early and late apoptotic cells. Cells were seeded in T25 flasks at 2.75 × 10^5 cells per flask and were incubated for 24 h. After the incubation time elapsed, drugs at concentrations of 10, 30, and 50 μM or vehicle were added to the flasks and further incubated for 24 h. Cells were suspended in PBS at a density of 4 × 10^5 cells/mL, followed by centrifugation at 400 g for 5 min. The supernatant was removed and replaced with 100 μL of Annexin V mix, 94 μL of Roche buffer, 2 μL of Annexin V‐CF488A, 2 μL of 10 μg/mL of propodium iodide (PI), and 2 μL of Hoechst 33342 buffer. Hoechst 33342 buffer in the Annexin V mix binds to the nuclei in the sample and fluoresces violet. The early apoptotic cells are stained with Annexin V‐CF488A, which fluoresces green. The non‐viable cells are stained by PI, and the late apoptotic cells are stained by both PI and Annexin V‐CF488A, which fluoresces red and green, respectively. […] After the incubation time elapsed, 40 μL of samples were loaded on to an A‐2 slide and were analyzed immediately using the NC‐3000 system. The scatter plot of the fluorescence intensity of Annexin V‐CF488A versus the fluorescence intensity of PI was used as a representation of cells in different stages of apoptosis.

[3] = tested on: caspase 3/7 activity in A2780/CP70 cells; experiment: Caspase 3/7 assay, A2780/CP70 cells; type: cell-based, human; conditions: A2780/CP70, 24 h contact time, dose-dependent, significant above 10 μM
Protocol: Sensolyte homogenous caspase 3/7 assay kit was used to determine the caspase activity in ovarian cancer cells when treated with CBG. Cells were seeded in 96‐well plate at 6 × 10^3 cells per well and were incubated for 24 h. CBG was added in concentrations of 10, 20, 30, and 50 μM and incubated for a further 24 h. After the incubation time elapsed, the media was removed and replaced with 150 μL/well of fresh complete media. Caspase 3/7 solution was prepared by diluting the caspase substrate 1:100 with DTT‐containing assay buffer. 50 μL/well caspase substrate was added to the plates, and the cells were incubated for 30 min. Ac‐DEVD‐AMC serves as the fluorogenic indicator for assaying caspase‐3/7 activity. Ac‐DEVD‐AMC generates the AMC fluorophore in the presence of caspase 3/7, which produces bright blue fluorescence. The fluorescence was measured by the FLOUstar OPTIMA plate reader with the excitation at 354 nm and emission at 442 nm.
The level of caspase 3/7 was also determined using Apotox‐Glo Triple assay. Cells were seeded and drugs were added as described above in Section 2.6.1. After 24 h incubation, caspase 3/7 reagent was prepared by mixing caspase buffer and substrate and 100 μL of reagent was added to each well for 30 min incubation at room temperature. […] The luminescence was measured by the FLOUstar OPTIMA plate reader.

A2780 cells = experiment: MTT cytotoxicity assay, A2780 cells; conditions: for IC50: Homo sapiens, read-out: IC50 cytotoxicity
Protocol: (§2) In separate experiments, cells were seeded in 96‐well plates and after 24 h elapsed they were exposed to different concentrations of drugs or vehicle. Cells were then left in the incubator for a further 24 or 48 h. Then the media was replaced with fresh media containing no drug and the cells were left in the incubator. MTT assay was performed after 96 h elapsed from the time when cells were exposed to drugs or vehicle.
(§3) The cells were then left in the incubator and MTT assay was performed 96 h following the initial exposure to the drugs.
(§4) The selective index (SI) is the ratio of mean IC50 values for non‐cancer cells to cancer cells. […] While the isobologram can be considered predominantly as a graphical depiction of drug interactions, the combination index (CI) is a quantitative representation. It relates the actual drug concentration in the combination to the concentration of the single drug that achieves the same effect. […] Here, CI analysis was used to investigate combinations at 50% cytotoxicity. To this end the IC50 of the viability dose–response curves were determined by non‐linear regression curve fit analysis (GraphPad Prism, v5.00).
(§5) CIA+B is the combination index of A and B; C A the concentration of A applied in combination; C B the concentration of B applied in combination; IC50 A the IC50 of drug A when it was applied individually to the cells; IC50 B = IC50 of drug B when it was applied individually to the cells.

ARPE19 cells = experiment: Annexin V assay, ARPE19 cells; type: cell-based, human; conditions: ARPE19, 50 μM, 24 h
Protocol: as §1

A2780/CP70 cells [4] = experiment: MTT cytotoxicity assay, A2780/CP70 cells; conditions: for IC50: Homo sapiens, read-out: IC50 cytotoxicity
Protocol: as §2, §3, §4, §5

SMILES: CCCCCc1cc(O)c(C/C=C(\C)CCC=C(C)C)c(O)c1 [CBG, cannabigerol]
- IC50 at 24 h [1]: 37.2 ± 2.1 µM
- IC50 at 48 h [1]: 22.9 ± 1.5 µM
- IC50 at 72 h [1]: 19.9 ± 0.3 µM
- IC50 at 96 h [1]: 18.3 ± 1.3 µM
- Cells in early apoptosis (A2780/CP70 cells [2]): 72 ± 1.4%
- Cells in late apoptosis (A2780/CP70 cells [2]): 9 ± 1.4%
- Caspase 3/7 activity [3]: increased the caspase 3/7 activity
- IC50 (A2780 cells; A2780, 24 h): 15.3 ± 0.3 µM
- IC50 (A2780 cells; A2780, 48 h): 13.9 ± 0.6 µM
- IC50 (A2780 cells; A2780, 72 h): 9.4 ± 0.8 µM
- IC50 (A2780 cells; A2780, 96 h): 5.7 ± 0.2 µM
- Selectivity index (A2780 cells; IC50 ARPE19 / IC50 A2780, 24 h): 2.09
- Selectivity index (A2780 cells; IC50 ARPE19 / IC50 A2780, 48 h): 1.53
- Selectivity index (A2780 cells; IC50 ARPE19 / IC50 A2780, 72 h): 2.04
- Selectivity index (A2780 cells; IC50 ARPE19 / IC50 A2780, 96 h): 3.05
- Selectivity index (A2780 cells; IC50 PNT2 / IC50 A2780, 24 h): 2.43
- Selectivity index (A2780 cells; IC50 PNT2 / IC50 A2780, 48 h): 1.65
- Selectivity index (A2780 cells; IC50 PNT2 / IC50 A2780, 72 h): 2.12
- Selectivity index (A2780 cells; IC50 PNT2 / IC50 A2780, 96 h): 3.20
- Cells in early apoptosis (ARPE19 cells): 54 ± 2.1%
- Cells in late apoptosis (ARPE19 cells): 5.6 ± 1.8%
- IC50 (A2780/CP70 cells [4]; A2780/CP70, 24 h): 17.7 ± 0.1 µM
- IC50 (A2780/CP70 cells [4]; A2780/CP70, 48 h): 15.4 ± 0.7 µM
- IC50 (A2780/CP70 cells [4]; A2780/CP70, 72 h): 12.3 ± 1.4 µM
- IC50 (A2780/CP70 cells [4]; A2780/CP70, 96 h): 7.1 ± 0.8 µM
- Selectivity index (A2780/CP70 cells [4]; IC50 ARPE19 / IC50 A2780/CP70, 24 h): 1.81
- Selectivity index (A2780/CP70 cells [4]; IC50 ARPE19 / IC50 A2780/CP70, 48 h): 1.37
- Selectivity index (A2780/CP70 cells [4]; IC50 ARPE19 / IC50 A2780/CP70, 72 h): 1.56
- Selectivity index (A2780/CP70 cells [4]; IC50 ARPE19 / IC50 A2780/CP70, 96 h): 2.45
- Selectivity index (A2780/CP70 cells [4]; IC50 PNT2 / IC50 A2780/CP70, 48 h): 1.48
- Selectivity index (A2780/CP70 cells [4]; IC50 PNT2 / IC50 A2780/CP70, 72 h): 1.59
- Selectivity index (A2780/CP70 cells [4]; IC50 PNT2 / IC50 A2780/CP70, 96 h): 2.56
